Test system: foot edema
Experiment: Antiphlogistic effect in rats (carrageenan foot edema)
Type: in vivo, rat
Conditions: 3 hours after carrageenan
Experimental: Male SD rats (6 weeks, Orient) were kept under the conditions of 22 °C, 55% of relative humidity, and light-darkness cycle of 12 hours. Food and water were supplied ad libitum. Before the induction of edema, the foot volume of each rat was measured by plethysmometer. Before the induction of edema, vehicle (a mixture of PEG400: ethanol:Tween80=15:7.5:2.5 was diluted by ten times with phosphate buffer) wherein the test compound is dissolved or the vehicle alone was orally administered into the rats. Carrageenan (gamma) was dissolved in the concentration of 1% in saline, and subcutaneously injected into the right rear foot of the rats in the dosage of 100 μl. After 3 hours, the right foot volume was measured again by plethysmometer. The effect of the test compound was shown by edema inhibition (%) (see Table 3). The edema inhibition (%) was calculated according to the following Equation 2. Edema Inhibition (%)=100×(Average of the increased foot volume in the vehicle-administered group−Increased foot volume in the test compound-administered group)/Average of the increased foot volume in the vehicle-administered group Equation 2

For `CC(C)[C@@]1(C(=O)NC(CC(=O)O)C(=O)CF)CC(c2nccc3ccccc23)=NO1` (stereo partly drawn) [Iii, 5-Fluoro-3-({[(5R)-5-isopropyl-3-(1-isoquinolinyl)-4,5-dihydro-5-isoxazolyl]carbonyl}amino)-4-oxopentanoic acid], the “Edema inhibition effect (%) Average” value (30 mg/kg oral) was 20.7% and the “Edema inhibition effect (%) Average” value (100 mg/kg oral) was 22.7%.
